Assays:
Male Sprague-Dawley rats = experiment: Determination of serum HDL cholesterol in cholesterol/cholic acid-fed rats; assay type: in vivo, rat; settings: dose of 100 mg/kg mixed in diet, eight days, six rats per group, diet with 0.25% cholic acid and 1.0% cholesterol, serum HDL cholesterol by FPLC; for change in vivo at 100 mg/kg: Rattus norvegicus, feed or water, 192 h, read-out: HDL Cholesterol Level Increase (%)
Experimental: The ability of the compounds of this invention to increase blood serum HDL levels was evaluated by the following standard experimental procedure for determination of HDL cholesterol:
Male Sprague-Dawley rats weighing 200-225 g were housed two per cage and fed Purina Rodent Chow Special Mix 5001-S supplemented with 0.25% cholic acid and 1.0% cholesterol and water ad libitum for 8 days. Each test substance was administered to a group of six rats fed the same diet with the test diet mixed in as 0.005-0.1% of the total diet. Body weight and food consumption were recorded prior to diet administration and at termination. Typical doses of the test substances are 5-100 mg/kg/day.
At termination, blood was collected from anesthetized rats and the serum was separated by centrifugation. Total serum cholesterol was assayed using the Sigma Diagnostics enzymatic kit for the determination of cholesterol, Procedure No. 352, modified for use with ninety-six well microtiter plates. After reconstitution with water the reagent contained 300 U/l cholesterol oxidase, 100 U/l cholesterol esterase, 1000 U/l horseradish peroxidase, […] p-hydroxybenzenesulfonate in a pH 6.5 buffer. In the reaction cholesterol is oxidized to produce hydrogen peroxide which is used to form a quinoneimine dye. The concentration of dye formed is measured spectrophotometrically by absorbence at 490 nm after incubation at 25° C. for 30 minutes. The concentration of cholesterol was determined for each serum sample relative to a commercial standard from Sigma.
HDL cholesterol concentrations in serum were determined by separation of lipoprotein classes by fast protein liquid chromatography (FPLC) by a modification of the method of Kieft et al., J. Lipid Res., 32 (1991) 859-866. 25 ul of serum was injected onto Superose 12 and Superose 6 (Pharmacia), in series, with a column buffer of 0.05 M Tris (2-amino-2-hydroxymethyl-1,3-propanediol) and 0.15 M sodium chloride at a flow rate of 0.5 ml/min. The eluted sample was mixed on line with Boehringer-Mannheim cholesterol reagent pumped at 0.2 ml/min. The combined eluents were mixed and incubated on line through a knitted coil (Applied Biosciences) maintained at a temperature of 45° C. The eluent was monitored by measuring absorbance at 490 nm and gave a continuous absorbance signal proportional to the cholesterol concentration. The relative concentration of each lipoprotein class was calculated as the per cent of total absorbency. HDL cholesterol concentration, in serum, was calculated as the per cent of total cholesterol as determined by FPLC multiplied by the total serum cholesterol concentration.
Test compounds were administered at a dose of 100 mg/kg. Each test substance was administered to a group of six rats. The duration of treatment was eight days.

Molecule	melting point [°C]	change in vivo at 100 mg/kg (Male Sprague-Dawley rats) [%]	HDL Cholesterol Level Increase (%) (Male Sprague-Dawley rats)
CCOC(=O)CON(C)C(=S)Nc1ccc2c(c1)CCC2 [Example 3, Ethyl [[[[(2,3-dihydro-1H-inden-5-yl)amino]thioxomethyl]methylamino]oxy]acetate]	69 to 71	146	
CCOC(=O)CON(C)C(=S)Nc1cc(C)ccc1C [Example 5, Ethyl [[[[(2,5-dimethylphenyl)amino]thioxomethyl]methylamino]oxy]acetate]		40	
CCOC(=O)CON(C)C(=S)NCC(C)C [Example 6, Ethyl [[[[(2-methylpropyl)amino]thioxomethyl]methylamino]oxy]acetate]		17	
CCOC(=O)CON(C)C(=S)Nc1ccc(Oc2ccccc2)cc1 [Example 7, Ethyl [[[[(4-phenoxyphenyl)amino]thioxomethyl]methylamino]oxy]acetate]		35	
CCOC(=O)CON(C(=S)Nc1cc(Cl)ccc1C)C(C)C [Example 9, Ethyl [[[[(5-Chloro-2-methylphenyl)amino]thioxomethyl](1-methylethyl)amino]oxy]acetate]	83 to 85	46	
CCOC(=O)CON(C(=S)Nc1cc(Cl)ccc1C)C(C)CC (stereo not drawn) [Example 10, Ethyl [[[[(5-Chloro-2-methylphenyl)amino]thioxomethyl](1-methylpropyl)amino]oxy]acetate]		39	
Ethyl [[methyl[[(2-(1-methylethyl)phenyl]amino]thioxomethyl]methylamino]oxy]acetate [Example 4]			104

Continued, in another order:

melting point [°C]	Molecule	change in vivo at 100 mg/kg (Male Sprague-Dawley rats) [%]	HDL Cholesterol Level Increase (%) (Male Sprague-Dawley rats)
83 to 84	CCOC(=O)CON(C)C(=S)Nc1cc(Cl)ccc1C [Example 1, Ethyl [[[[(5-Chloro-2-methylphenyl)amino]thioxomethyl]methylamino]oxy]acetate]	118	
104 to 106	CCOC(=O)CON(C)C(=S)Nc1ccc(Cl)cc1C [Example 2, Ethyl [[[[(4-Chloro-2-methylphenyl)amino]thioxomethyl]methylamino]oxy]acetate]	62	
69 to 71	CCOC(=O)CON(CC)C(=S)Nc1ccc(Cl)cc1C [Example 8, Ethyl [[[[(4-Chloro-2-methylphenyl)amino]thioxomethyl]ethylamino]oxy]acetate]	90	

Source: patent publication US6472430B2, “Amino thioxomethyl amino oxyacetic acid derivatives” (priority 2000, dated 2002)
